{
  "source": "patent US5334728A",
  "about": "(The Trustees of The University of Pennsylvania, priority 1992, dated 1994)",
  "key": {"D-2 dopamine receptors": {"molecular_target": "T1, D-2 dopamine receptors (Rattus norvegicus, UniProt P61169)", "T1 construct": "Striatal tissues were excised, pooled and homogenized in 100 volumes (w/v) of ice-cold Tris-HCl buffer; from tissue; host or cells: rat striatum (male Sprague-Dawley), twice-centrifuged membrane homogenate", "T1 sequence (P61169 whole entry)": "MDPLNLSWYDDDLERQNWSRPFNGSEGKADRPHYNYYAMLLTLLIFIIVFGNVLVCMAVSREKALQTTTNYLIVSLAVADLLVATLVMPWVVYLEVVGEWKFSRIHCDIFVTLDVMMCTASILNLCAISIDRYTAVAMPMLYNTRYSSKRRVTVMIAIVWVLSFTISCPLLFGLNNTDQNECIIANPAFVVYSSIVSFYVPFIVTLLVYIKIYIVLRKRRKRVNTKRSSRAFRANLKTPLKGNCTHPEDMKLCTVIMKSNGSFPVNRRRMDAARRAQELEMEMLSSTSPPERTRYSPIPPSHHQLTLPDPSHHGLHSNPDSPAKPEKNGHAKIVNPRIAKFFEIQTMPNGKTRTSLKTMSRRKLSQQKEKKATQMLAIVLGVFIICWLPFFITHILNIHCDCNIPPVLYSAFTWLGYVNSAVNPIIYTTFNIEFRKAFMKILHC", "experiment": "Competition binding using [^125 I]IBZM, rat striatal membranes", "protocol": "*0.15-0.4 nM [^125 I]IBZM was incubated in the presence of the\n(§1) indicated compounds in 7-11 concentrations and of membrane preparation\n(§2) from rat striatum. Each value represents the mean ± SEM of three to\n(§3) Male Sprague-Dawley rats (200-250 g) were decapitated, and the brains were removed and placed in ice. Striatal tissues were excised, pooled and homogenized in 100 volumes (w/v) of ice-cold Tris-HCl buffer (50 mM), pH 7.4. The homogenates were centrifuged at 20,000× g for 20 min. The resultant pellets were rehomogenized in the same buffer and centrifuged again. The final pellets were resuspended in assay buffer containing: 50 mM Tris buffer pH 7.4, 120 mM NaCl, 5 mM KCl, 2 mM CaCl2 and 1 mM MgCl2 and kept at -20° C. for the following binding assay.\n(§4) The binding assays were performed by incubating 50 μl of tissue preparations containing 40-60 μg of protein with appropriate amounts of l-125 labeled ligand and competitors in a total volume of 0.2 ml of the assay buffer. After an incubation period of 15 min at 37° C. (with stirring), the samples were rapidly filtered in the cell harvester (Brandel M-24R) under vacuum through Whatman GF/B glass fiber filters pretreated with 0.2% protamine base and washed with 3×5 ml of cold (4° C.) 50 mM Tris-HCl buffer, pH 7.4. […] The filters were counted in a gamma counter (Beckman 5500) at an efficiency of 70%."}, "dopamine D-2 receptor [1]": {"molecular_target": "T2, dopamine D-2 receptor (Rattus norvegicus, UniProt P61169)", "T2 construct": "Striatal tissues were excised, pooled and homogenized in 100 volumes (w/v) of ice-cold Tris-HCl buffer; from tissue; host or cells: rat striatum (male Sprague-Dawley), twice-centrifuged membrane homogenate", "T2 sequence (P61169 whole entry)": "as above", "experiment": "Competition binding using [^125 I]IBF, rat striatal membranes", "conditions": "[^125 I]IBF 0.15-0.30 nM, mean ± SEM of three to five determinations", "protocol": "*0.15-0.30 nM [^125 I]IBF was incubated in the presence of the\nas §1, §2, §3, §4"}, "D-2 dopamine receptor [2]": {"molecular_target": "D-2 dopamine receptor", "conditions": "cited from earlier work; for Kd: Table 1, in vitro binding; for affinity and selectivity to the D-2 dopamine receptor: striatal membrane preparation; for affinity for D-2 dopamine receptor / nonspecific binding: rat striatum tissue preparations"}, "D-2 dopamine receptor [3]": {"molecular_target": "D-2 dopamine receptor", "conditions": "read-out: IC50 against [H^3]spiperone binding of rat striatal tissue preparation; Table 1 footnote; cited from earlier work"}, "D-2 dopamine receptor [4]": {"test_system": "D-2 dopamine receptor", "conditions": "cited from earlier work"}, "[5]": {"experiment": "Biodistribution in rats after IV injection", "type": "in vivo, rat", "conditions": "IV, average of 3 rats ± SD", "protocol": "Male Sprague Dawley rats (225-300 g), which were allowed free access to food and water, were used for in vivo biodistribution study. While under halothane anesthesia, 0.2 ml of a saline solution containing [^125 l]IBF, 21, (8-10 μCi) was injected directly into the femoral vein, and the rats were sacrificed at various time points postinjection by cardiac excision under halothane anesthesia. The organs of interest were removed, weighed and the radioactivity was counted using a Beckman gamma automatic counter (Model 4000). The percent dose per organ was calculated by a comparison of the tissue counts to suitably diluted aliquots of the injected material. Total activities of blood and muscle were calculated assuming that they are 7% and 40% of total body weight, respectively."}, "D-2 dopamine receptor [6]": {"test_system": "D-2 dopamine receptor", "conditions": "cited from earlier work; for nonspecific binding: in vitro"}, "dopamine D-2 receptor [7]": {"molecular_target": "T2, dopamine D-2 receptor", "experiment": "Saturation binding of [^125 I]IBF to rat striatal homogenate in vitro", "conditions": "saturation curve, FIG. 1", "protocol": "as §3, §4"}, "[8]": {"test_system": "CNS D-2 dopamine receptor", "conditions": "cited from earlier work"}, "[9]": {"conditions": "[^125 I]IBZM 0.15-0.4 nM, mean ± SEM of three to five determinations"}, "[10]": {"conditions": "N-methylspiperone imaging agent, determined earlier"}},
  "note": "Read-outs that look alike come from different tables or passages of the source.",
  "data": [
    {"smiles": "CCN1CCC[C@H]1CNC(=O)c1cccc2c1OCC2", "note": "[Compound 23, 7-N-[(1-ethyl-2-pyrrolidinyl)methyl]carboxamido-2,3-dihydrobenzofuran]", "values": [
      {"measurement": "Ki", "setting": "D-2 dopamine receptors; [9]", "result": "135 ± 22", "unit": "nM"},
      {"measurement": "Ki", "setting": "D-2 dopamine receptors; [^125 I]IBZM binding", "result": 135, "unit": "nM"}
    ]},
    {"smiles": "CCN1CCC[C@H]1CNC(=O)c1c(OC)ccc(I)c1O", "note": "[IBZM]", "values": [
      {"measurement": "Ki", "setting": "dopamine D-2 receptor [1]", "result": "0.261 ± 0.018", "unit": "nM"},
      {"measurement": "Kd", "setting": "D-2 dopamine receptor [2]", "result": 0.43, "unit": "nM"},
      {"measurement": "affinity and selectivity to the D-2 dopamine receptor", "setting": "D-2 dopamine receptor [2]", "result": "very high affinity and selectivity"}
    ]},
    {"smiles": "CCN1CCC[C@H]1CNC(=O)c1cc(I)ccc1OC", "note": "[Iodopride]", "values": [
      {"measurement": "IC50", "setting": "D-2 dopamine receptor [3]", "result": 3, "unit": "nM"},
      {"measurement": "affinity and selectivity to the D-2 dopamine receptor", "setting": "D-2 dopamine receptor [2]", "result": "very high affinity and selectivity"}
    ]},
    {"smiles": "CCN1CCC[C@H]1CNC(=O)c1cc2ccccc2cc1OC", "note": "[Compound 11, (S)-(-)-3-Methoxy-N-[(1-ethyl-2-pyrrolidinyl)methyl]naphthyl-2-carboxamide]", "values": [
      {"measurement": "Ki", "setting": "D-2 dopamine receptors; [9]", "result": "30 ± 4.2", "unit": "nM"},
      {"measurement": "Ki", "setting": "D-2 dopamine receptors; [^125 I]IBZM binding", "result": 30, "unit": "nM"}
    ]},
    {"smiles": "CCN1CCC[C@H]1CNC(=O)c1c(OC)ccc([123I])c1O", "note": "[S-[^123 I]IBZM]", "values": [
      {"measurement": "basal ganglia uptake, planar imaging", "setting": "D-2 dopamine receptor [4]; immediately after intravenous injection, humans", "result": "high concentration in basal ganglia of the brain"},
      {"measurement": "basal ganglia uptake, SPECT", "setting": "D-2 dopamine receptor [4]; normal human brain, 1 hour postinjection", "result": "highly specific uptake in the basal ganglia of the brain"}
    ]},
    {"smiles": "CCN1CCC[C@H]1CNC(=O)c1c(OC)ccc([125I])c1O", "note": "[[^125 I]IBZM, reference compound]", "values": [
      {"measurement": "Brain uptake", "setting": "[5]; 2 min", "result": 2.87, "unit": "% Dose/Organ"},
      {"measurement": "Thyroid uptake", "setting": "[5]; 60 min", "result": 0.1, "unit": "% Dose/Organ"},
      {"measurement": "nonspecific binding", "setting": "D-2 dopamine receptor [6]", "result": 5, "unit": "%"}
    ]},
    {"smiles": "CCN1CCC[C@H]1CNC(=O)c1cc(I)cc2c1OCC2", "note": "[Compound 21, 5-Iodo-7-N-[(1-ethyl-2-pyrrolidinyl)methyl]carboxamido-2,3-dihydrobenzofuran]", "values": [
      {"measurement": "Ki", "setting": "D-2 dopamine receptors; [9]", "result": "0.33 ± 0.02", "unit": "nM"},
      {"measurement": "Ki", "setting": "D-2 dopamine receptors; [^125 I]IBZM binding", "result": 0.23, "unit": "nM"},
      {"measurement": "times more effective than the bromine atom for increasing competitive binding affinity", "setting": "D-2 dopamine receptors; iodo (21) vs bromo (19)", "result": "sixteen"},
      {"measurement": "nonspecific binding", "setting": "dopamine D-2 receptor [7]", "result": "low nonspecific binding"},
      {"measurement": "Ki", "setting": "dopamine D-2 receptor [1]", "result": "0.085 ± 0.01", "unit": "nM"}
    ]},
    {"smiles": "O=C(CCCN1CCC2(CC1)C(=O)NCN2c1ccccc1)c1ccc(F)cc1I", "note": "[2'-ISP]", "values": [
      {"measurement": "D-2 specificity", "setting": "D-2 dopamine receptor [6]", "result": "excellent D-2 specificity"},
      {"measurement": "nonspecific binding", "setting": "D-2 dopamine receptor [6]", "result": 40, "unit": "%"},
      {"measurement": "Kd", "setting": "D-2 dopamine receptor [6]; rat striatum", "result": 0.25, "unit": "nM"}
    ]},
    {"smiles": "CCc1cc(Cl)c(OC)c(C(=O)NC[C@@H]2CCCN2CC)c1O", "note": "[Eticlopride]", "values": [
      {"measurement": "Kd", "setting": "D-2 dopamine receptor [2]", "result": 0.17, "unit": "nM"},
      {"measurement": "affinity for D-2 dopamine receptor", "setting": "D-2 dopamine receptor [2]", "result": "high affinity"},
      {"measurement": "nonspecific binding", "setting": "D-2 dopamine receptor [2]", "result": "low nonspecific binding"}
    ]},
    {"smiles": "CN1CN(c2ccccc2)C2(CCN(CCCC(=O)c3ccc(F)cc3)CC2)C1=O", "note": "[N-methylspiperone]", "values": [
      {"measurement": "Bmax", "setting": "[8]; [10]", "result": 16.6, "unit": "pmol/g"},
      {"measurement": "Kd", "setting": "[8]; [10]", "result": 0.097, "unit": "nM"}
    ]},
    {"smiles": "CCN1CCC[C@H]1CNC(=O)c1c(O)c(Cl)cc(Cl)c1OC", "note": "[Raclopride]", "values": [
      {"measurement": "Kd", "setting": "D-2 dopamine receptor [2]", "result": 1.1, "unit": "nM"},
      {"measurement": "affinity for D-2 dopamine receptor", "setting": "D-2 dopamine receptor [2]", "result": "high affinity"},
      {"measurement": "nonspecific binding", "setting": "D-2 dopamine receptor [2]", "result": "low nonspecific binding"}
    ]},
    {"smiles": "CCN1CCC[C@H]1CNC(=O)c1c(O)cccc1OC", "note": "[BZM]", "values": [
      {"measurement": "Kd", "setting": "D-2 dopamine receptor [2]", "result": 31.1, "unit": "nM"}
    ]},
    {"smiles": "COc1cc(N=[N+]=[N-])c(I)cc1C(=O)NC1CCN(Cc2ccccc2)CC1", "note": "[Iodoazidoclebopride]", "values": [
      {"measurement": "Kd", "setting": "D-2 dopamine receptor [2]", "result": 14, "unit": "nM"},
      {"measurement": "affinity and selectivity to the D-2 dopamine receptor", "setting": "D-2 dopamine receptor [2]", "result": "very high affinity and selectivity"}
    ]},
    {"smiles": "NC1CCc2cc(O)c(O)cc2C1", "note": "(single isomer, unassigned; (+)) [(+) ADTN,6,7]", "values": [
      {"measurement": "Ki", "setting": "dopamine D-2 receptor [1]", "result": "65.7 ± 13", "unit": "nM"}
    ]},
    {"smiles": "O=C(c1ccc(F)cc1)C1CCN(CCn2c(=O)[nH]c3ccccc3c2=O)CC1", "note": "[Ketanserin]", "values": [
      {"measurement": "Ki", "setting": "dopamine D-2 receptor [1]", "result": "491 ± 49", "unit": "nM"}
    ]},
    {"smiles": "CCN1CCC[C@H]1CNC(=O)c1cc2cc(Br)ccc2cc1OC", "note": "[Compound 6, S-(-)-7-Bromo-3-methoxy-N[(1-ethyl-2-pyrrolidinyl)methyl]naphthyl-2-carboxamide]", "values": [
      {"measurement": "Ki", "setting": "D-2 dopamine receptors; [9]", "result": "82 ± 12", "unit": "nM"},
      {"measurement": "Ki", "setting": "D-2 dopamine receptors; [^125 I]IBZM binding", "result": 82, "unit": "nM"}
    ]},
    {"smiles": "CCN1CCC[C@H]1CNC(=O)c1c(O)c(Cl)cc(Cl)c1O[11CH3]", "note": "(racemic) [[^11 C]raclopride]", "values": [
      {"measurement": "affinity constant Kd", "setting": "[8]; living human brain, PET, equilibrium model and Scatchard plots", "result": 7.1, "unit": "nM"},
      {"measurement": "Bmax", "setting": "[8]; living human brain, PET", "result": 15, "unit": "pmol/mL"},
      {"measurement": "ratio of specific striatal to nonspecific cerebellar binding", "setting": "[8]; living human brain, PET", "result": "high ratio"}
    ]},
    {"smiles": "CCN1CCC[C@H]1CNC(=O)c1cc2cc(Br)ccc2cc1O", "note": "[Comparative Cpd. A, reference compound]", "values": [
      {"measurement": "Ki", "setting": "D-2 dopamine receptors; [9]", "result": "280 ± 47", "unit": "nM"}
    ]},
    {"smiles": "CCN1CCC[C@H]1CNC(=O)c1c(OC)ccc2ccccc12", "note": "[Comparative Cpd. B, 2-Methoxy-N-[(1-ethyl-2-pyrrolidinyl)methyl]naphthyl-1-carboxamide, reference compound]", "values": [
      {"measurement": "Ki", "setting": "D-2 dopamine receptors; [9]", "result": "507 ± 29", "unit": "nM"}
    ]},
    {"smiles": "CCN1CCC[C@H]1CNC(=O)c1cc2cc(I)ccc2cc1OC", "note": "[Compound 8, (S)-(-)-7-Iodo-3-methoxy-N-[(1-ethyl-2-pyrrolidinyl)methyl]naphthyl-2-carboxamide]", "values": [
      {"measurement": "Ki", "setting": "D-2 dopamine receptors; [9]", "result": "168 ± 13", "unit": "nM"},
      {"measurement": "Ki", "setting": "D-2 dopamine receptors; [^125 I]IBZM binding", "result": 168, "unit": "nM"}
    ]}
  ]
}
